Here are results for two substances from patent US20100297688A1, “METHOD FOR DIAGNOSING OR PREDICTING SHORT STATURE IN HUMANS” (priority 2009, published 2010).

In one test the test system is GH secretion. The experiment in a line: GHRH test (GH stimulation test) in children with short stature. In kind it is in vivo, human. To be noted: GHRH 1 μg/kg IV at 0 min; GH peaks induced consistently in the first 30 min. The method, then:
Patients. A GHRH test was conducted after overnight fasting, modified with samples that were obtained at 3, 5, and 10 minutes in addition to routine protocol collection of samples at 30 minutes, 60 minutes, 90 minutes and 120 minutes following GHRH injection (GHRH1-29: GEREF, SERONO, Italy; 1 μg/kg IV at 0 min). A total of 19 children (8.6±3.2, range from 2.5 yrs to 14 yrs, 5 girls) who suffered SS (short stature) (Ht−2.5±0.6 SDS) were administered GHRH 1 μg/kg IV at 0 min and blood samples were obtained at 0, 3, 5, 10, 30, 60, 90 and 120 min. GH was determined in all samples.
Blood sample processing. GH and IGF-1 were analyzed at Esoterix (Texas, U.S.). IGF1 was measured by radioimmunoassay after acid-ethanol extraction and with IGF2 blocking. A 100 uL of sample was initially used for the procedure. Growth hormone was tested by ICMA, requires min amount of 0.2 ml of serum, preparation include 1 mL serum, separate within one hour that was shipped frozen in plastic vial (http://www.esoterix.com/prodserv/test_menu!)
AUC measurements for GH were calculated according trapezoid rule (Tai MM 1994 A mathematical model for the determination of total area under glucose tolerance and other metabolic curves. Diabetes Care 17:p 152-4).

For test [1] the following is noted: adult dogs, after treatment with GH for 3 months, histomorphometry; cited from earlier work.

No end group written: not given here.

For the substance “Growth hormone releasing hormone (YADAIFTNSYRKVLGQLSARKLLQDIMSR; ends and bridges not checked; UniProt P01286 32-60, looked up, fragment) [GHRH, GHRH1-29: GEREF, SERONO, Italy; stimulator of GH secretion]”, the “time of GH peak after GHRH” value in the test on GH secretion is given as at most 30 min.

Take Growth hormone [GH]: in test [1], the “increase in cortical bone mass” value is given as 2%.
